Test results from publication PMC12192727, “Strategies to Develop Na,K-ATPase-α4 Inhibitors as Male Contraceptives” (International Journal of Molecular Sciences, 2025).
Values after ≈ are worked out from the molar mass of the structure shown.

Experiments:
[1] = Solubility as noted when testing was attempted; format: physicochemical
[2] = physchem; format: physicochemical; conditions: PBS pH 7.4; read-out: Solubility
Procedure: The stock solutions of 11 and 45 were prepared in DMSO at a concentration of 30 mM, and the stock solution of the control compound was prepared in DMSO at a concentration of 30 mM. Progesterone was used as a positive control in the assay. An amount of 10 µL of stock solution of each compound was placed in order into their proper 96-well rack, followed by adding 990 µL of PBS at pH 7.4 into each vial of the capless Solubility Sample plate. This study was performed in duplicate. One stir stick was added to each vial and then sealed using a molded PTDE/SIL 96-Well Plate Cover (Pharmaron, Waltman, MA, USA). The Solubility Sample plate was transferred to the Thermomixer Comfort plate shaker and incubated at RT for 2 h with shaking at 1100 rpm. After 2 h of incubation, stir sticks were removed using a big magnet, and all samples from the Solubility Sample plate were transferred into the filter plate. All the samples were filtered using a vacuum manifold. The filtered samples were diluted with methanol. The soluble fraction (filtrate) was then analyzed by LC-MS/MS, and the compound concentration was determined using 0.3 μM standard solutions prepared from DMSO stocks. The experimental details are reported in the Supporting Information (Table S1). […]
Table S1 . Solubility Results of Test C ompound and Control C ompound in […]
Compound ID Solubility (µM)
Preparation of Stock Solutions: The stock solutions of test compounds were prepared in DMSO at the concentration of 30 mM, and the stock solution of control compound was prepared in DMSO at the concentration of 30 mM.
Progesterone was used as positive control in the assay.
Solubility Determination: 10 µL stock solution of each compound was placed in order into their proper 96-well rack, followed by adding 990 µL of PBS at pH 7.4 into each vial of the cap-less Solubility Sample plate. This study was performed in duplicate. One stir stick was added to each vial and then vials were sealed using a molded PTDE/SIL 96-Well Plate Cover. The Solubility Sample plate was transferred to the Thermomixer Comfort plate shaker and incubated at RT for 2 hours with shaking at 1100 rpm. After 2 hours incubation, stir sticks were removed using a big magnet and all samples from the Solubility Sample plate were transferred into the filter plate. All the samples were filtered by using the Vacuum Manifold. The filtered samples were diluted with methanol. The dilution factor might be changed according to the solubility value and the LC/MS signal response. To prepare 0.3 µM Standards (STD), 30 mM DMSO compound stock solutions were diluted with DMSO to 300 µM and then diluted with methanol to obtain 0.3 µM STDs. Samples were analyzed by LC-MS/MS. All calculations were carried out using Microsoft Excel. The solution filtered was analyzed and quantified against a standard of known concentration in DMSO using LC coupled with Mass spectral peak identification and quantitation. The solubility values of the test compounds were calculated as follow DF means the dilution factor
1. Chromatographic conditions
Apparatus: Triple QuadTM 5500 instrument from AB Inc (Canada) with an ESI interface Column: XSelect Hss T3 2.5µ (2.1×50 mm) Column XP coupled with preguard column Mobile phase: 0.1% formic acid in acetonitrile (A) and 0.1% formic acid in water (B) […]

| Compound | Solubility (in words, precluded testing) [1] | Solubility [2] |
| --- | --- | --- |
| CC12CCC(=O)C=C1CCCC2c1cn(Cc2ccccc2)nn1 (stereo not drawn) [Compound 39, 5-(1-Benzyl-1H-1,2,3-triazol-4-yl)-4a-methyl-4,4a,5,6,7,8-hexahydronaphthalen-2(3H)-one] | poor solubility | – |
| C[C@]12CC[C@H]3[C@@H](CC=C4C[C@@H](O)CC[C@@]43C)[C@@H]1CC[C@@H]2n1cc(-c2ccccc2)nn1 [Compound 30, (3S,8R,9S,10R,13S,14S,17S)-10,13-Dimethyl-17-(4-phenyl-1H-1,2,3-triazol-1-yl)-2,3,4,7,8,9,10,11,12,13,14,15,16,17-tetradecahydro-1H-cyclopenta[a]phenanthren-3-ol] | inadequate solubility | – |
| CC(=O)[C@H]1CC[C@H]2[C@@H]3CCC4=CC(=O)CC[C@]4(C)[C@H]3CC[C@]12C [Progesterone, reference compound] | – | 18.0 µM (≈ 5.66 µg/mL) |
